Paper PMC6272185 (Molecules, 2015)
In brackets after ≈: the same amount, converted by molar mass. Read-outs that look alike come from different tables or passages of the source.

Assays:
[1] = tested on: NO production by LPS-stimulated RAW 264.7 macrophages; experiment: Inhibition of NO production by LPS-stimulated macrophages (Griess); format: cell-based, murine; details: mean ± SD, n = 3
[2] = tested on: TNF-α production by LPS-stimulated RAW 264.7 macrophages; experiment: Inhibition of TNF-α production by LPS-stimulated macrophages (ELISA); format: cell-based, murine; details: for IC50: Mus musculus, RAW264.7, LPS (1 µg/mL)-stimulated RAW 264.7, 24 h, mean ± SD, n = 3, read-out: IC50 TNF-α
[3] = Macrophage cytotoxicity, LDH release assay; format: cell-based, murine; details: mouse, RAW 264.7 macrophages stimulated with LPS; LPS-stimulated RAW 264.7, LDH release; mean ± SD, n = 3
Method: (§4) Cytotoxic effects of chalcone samples on RAW 264.7 cell viability in cultures stimulated with LPS were determined using the LDH (lactate dehydrogenase) release assay as previously described [58]. Cytoplasmic enzyme LDH release into cell culture supernatants was detected using a commercial LDH kit (Doles, GO, Brazil). Cell death was expressed as percentage of LDH release, which was calculated using the following formula: percentage of LDH release = 100 × (test LDH release − spontaneous release)/(maximum release − spontaneous release). The maximum release was determined following dissolution of cell monolayers using 1% (vol/vol) Triton X-100. The spontaneous release was determined in supernatants from cultures incubated in the presence of LPS and DMSO, used as a solvent for chalcone samples.

RAW 264.7 macrophages = experiment: Macrophage cytotoxicity, LDH release assay; format: cell-based, murine; details: LDH release
Method: as §4

M. bovis BCG = experiment: microbe, parasite or virus in culture; format: cell-based, Mycobacterium bovis BCG; details: for MIC50 / MIC90: Mycobacterium tuberculosis variant bovis BCG, BCG, 168 h; for MIC50: read-out: MIC50 M. bovis BCG; for MIC90: read-out: MIC90 M. bovis BCG
[4] = tested on: IL-1β production by LPS-stimulated RAW 264.7 macrophages; experiment: Inhibition of IL-1β production by LPS-stimulated macrophages (ELISA); format: cell-based, murine; details: for IC50: Mus musculus, RAW264.7, 24 h, read-out: IC50 IL-1β
Method: (§1) Murine RAW 264.7 macrophage cell line (American Type Culture Collection, Manassas, VA, USA), was cultured in Dulbecco’s modified Eagle’s medium (DMEM-F12) supplemented with 10% Fetal Bovine Serum (FBS) and gentamicin (50 µg/mL) in 5% CO2 atmosphere at 37 °C. For experiments, the cells were seeded in 96-well plates (1 × 10^5 cells/well) and incubated for 24 h at 37 °C. For macrophage stimulation, the cell cultures were treated with LPS (1 µg/mL) and incubated for additional 24 h in the presence or absence of the chalcone samples (samples 1–41) that were used at concentrations of 100, 20, 4 and 0.8 µg/mL. In some experiments, a nitric oxide (NO) inhibitor, L-NMMA (20 μg/mL), was used as a positive control of NO inhibition, and a non-steroidal anti-inflammatory drug indomethacin, known to inhibit production of prostaglandins, was used as a positive control of PGE2 inhibition.
(§2) The frozen culture supernatants samples were thawed and immediately analyzed using commercially available enzyme-linked immunosorbent assay (ELISA) kits to measure TNF-α, IL-1β (BD Biosciences) and PGE2 (R&D Systems, Minneapolis, MN, USA), according to the manufacturer’s instructions. Standard curves for each mediator were generated using reference cytokine concentrations supplied by the manufacturer. Nitric oxide (NO) generation was assessed by the Griess method to measure nitrites, which are stable breakdown NO products.

[5] = tested on: PGE2 production by LPS-stimulated RAW 264.7 macrophages; experiment: Inhibition of PGE2 production by LPS-stimulated macrophages (ELISA); format: cell-based, murine; details: Mus musculus, RAW264.7, 24 h, read-out: IC50 PGE2
Method: as §1, §2

[6] = tested on: iNOS expression in RAW 264.7 macrophages; experiment: iNOS expression by western blot in LPS-stimulated macrophages; format: cell-based, murine; details: 20 µg/mL, LPS 1 µg/mL, 24 h
Method: RAW 264.7 macrophages were plated in Petri dishes (2 × 10^7 cells·mL^−1) and incubated for 24 h at 37 °C in 5% CO2 atmosphere. […] The resulted cellular monolayers were washed with PBS 1×, scraped and resuspended in PBS 1×, transferred and centrifuged to obtain cell pellets. The cells were lysed in buffer (10% SDS, 20% glycerol, 5% 2-mercaptoethanol, 2% bromophenol blue and 1 M Tris HCl, pH 6.8, containing protease inhibitors). Protein concentrations were estimated by Bradford method. For western blot analysis, cellular extract samples (60 µg) were submitted to 10% SDS–polyacrylamide gel electrophoresis under […] conditions and transferred to nitrocellulose membranes (Amersham Pharmacia Biotech, Uppsala, Sweden). After blocking with PBS-T (0.5% Tween-20) containing 2.5% (w/v) bovine serum albumin, the membranes were incubated with antibodies against iNOS (1:1000) and COX-2 (1:500) for 1 h at room temperature. After incubation period, the membranes were washed followed by treatment with horseradish peroxidase-conjugated secondary antibody. The resulting membranes were developed using diaminobenzidine/H2O2 as a substrate for peroxidase. In all electrophoresis experiments, a protein standard ladder (Full Range Rainbow-GE Healthcare, Piscataway, NJ, USA) was used to estimate proteins molecular size. Protein bands densitometric analysis was performed using ImageJ software for Windows (NIH, Bethesda, MD, USA). The value for stimulated condition (LPS- treated cells) was set as 1 and other conditions were recalculated correspondingly to allow ratio comparisons.

M. tuberculosis H37Rv = experiment: microbe, parasite or virus in culture; format: cell-based, Mycobacterium tuberculosis; details: Mycobacterium tuberculosis
M. tuberculosis M299 = experiment: microbe, parasite or virus in culture; format: cell-based, Mycobacterium tuberculosis; details: Mycobacterium tuberculosis, M299, 120 h
[7] = tested on: M. tuberculosis strain H37Rv in RAW 264.7 macrophages; experiment: Intracellular growth of M. tuberculosis H37Rv in infected macrophages (CFU); format: cell-based, Mycobacterium tuberculosis; details: infected RAW 264.7, MOI 1:1, 4 days, Figure 3C; for MIC50: Mycobacterium tuberculosis, H37RV, 96 h
Method: (§3) RAW 264.7 macrophages were plated (1 × 10^5 cells/well) in antibiotic-free DMEM-F12 medium supplemented with 10% fetal bovine serum and incubated for 24 h. Prior to infection, mycobacterial suspensions were sonicated for 1 minute to disperse clumps and optical densities were adjusted to 0.1. The macrophage cultures were infected at a MOI of 1:1 (macrophage: bacterium). Phagocytosis was allowed to progress for 3 h. After 3 h, extracellular mycobacteria were removed by washing with PBS 1X and the infected cell monolayers were treated for 4 days with chalcone samples or rifampicin. Macrophage viability was monitored by LDH assay and was over 80% in all experiments. On day 4 after infection, cells were lysed cells with 1% saponin to release intracellular bacteria. Lysate aliquots were diluted 10-fold in PBS, plated in triplicates on 7H10 agar plates and incubated at 37 °C. After 21 days, total CFU were determined.

[8] = tested on: RAW 264.7 macrophages infected with M. tuberculosis H37Rv; experiment: Toxicity for infected macrophages, LDH assay; format: cell-based, murine; details: Mus musculus, RAW264.7, 96 h; infected RAW 264.7, 4 days treatment; Figure 3D
Method: Cytotoxic effects of chalcone samples on RAW 264.7 cell viability in cultures stimulated with LPS were determined using the LDH (lactate dehydrogenase) release assay as previously described. Cytoplasmic enzyme LDH release into cell culture supernatants was detected using a commercial LDH kit (Doles, GO, Brazil). Cell death was expressed as percentage of LDH release, which was calculated using the following formula: percentage of LDH release = 100 × (test LDH release − spontaneous release)/(maximum release − spontaneous release). The maximum release was determined following dissolution of cell monolayers using 1% (vol/vol) Triton X-100. The spontaneous release was determined in supernatants from cultures incubated in the presence of LPS and DMSO, used as a solvent for chalcone samples.
as §3

[9] = Mus musculus, RAW264.7, 24 h, LPS (1 µg/mL)-stimulated RAW 264.7, 24 h, read-out: IC50 NO
[10] = LPS (1 µg/mL)-stimulated RAW 264.7, 24 h, read-out: IC50 NO
[11] = Mus musculus, RAW264.7, 24 h, read-out: IC50 NO, LPS (1 µg/mL)-stimulated RAW 264.7, 24 h
[12] = H37RV, 120 h, read-out: MIC50 M. tuberculosis H37Rv
[13] = Table 5, same values as M. tuberculosis H37Rv in Table 3, read-out: MIC50

| SMILES | IC50 [1, 9] [µM] | IC50 [2] [µM] | IC50 [3] [µM] | cytotoxicity profile (RAW 264.7 macrophages) | MIC50 (M. bovis BCG) [µM] | MIC90 (M. bovis BCG) [µM] | IC50 [1, 10] [µM] | IC50 [1, 11] [µM] | IC50 [4] [µM] | IC50 [5] [µM] | MIC90 (M. tuberculosis H37Rv; H37RV, 120 h) [µM] | MIC50 (M. tuberculosis H37Rv; [12]) [µM] | MIC50 (M. tuberculosis H37Rv; [13]) [µM] | MIC50 (M. tuberculosis M299) [µM] | MIC90 (M. tuberculosis M299) [µM] | MIC50 [7] [µM] | IC50 [8] [µM] | other results |
| --- | --- | --- | --- | --- | --- | --- | --- | --- | --- | --- | --- | --- | --- | --- | --- | --- | --- | --- |
| O=C(/C=C/c1ccc(Cl)cc1)c1ccc(Br)cc1 [Chalcone 10] | 68.9 ± 4.3 | > 311 | 113.4 ± 0.5 | worst cytotoxicity profiles | 22.3 ± 6.3 (≈ 7.17 µg/mL) | 288 ± 3.2 (≈ 92.6 µg/mL) | – | – | – | – | – | – | – | – | – | – | – | – |
| COc1ccc(C(=O)/C=C/c2ccccc2Cl)cc1 [Chalcone 30] | 23.9 ± 4.8 | > 367 | 100 ± 5.1 | worst cytotoxicity profiles | 37.8 ± 6.4 (≈ 10.3 µg/mL) | 329 ± 3.6 (≈ 89.6 µg/mL) | – | – | – | – | – | – | – | – | – | – | – | – |
| CN(C)c1ccc(/C=C/C(=O)c2ccccc2)cc1 [Chalcone 4] | – | 66.9 ± 4.3 | 348 ± 5.1 | – | 14.3 ± 5.8 (≈ 3.59 µg/mL) | 137 ± 7.9 (≈ 34.5 µg/mL) | 12 ± 2.2 | < 21 | 116 ± 5.5 | 61.2 ± 0.5 | 320 ± 4.8 (≈ 80.5 µg/mL) | 19.7 ± 1.9 (≈ 4.95 µg/mL) | 19.7 ± 1.9 (≈ 4.95 µg/mL) | 20.1 ± 1 (≈ 5.05 µg/mL) | 351.5 ± 1.8 (≈ 88.3 µg/mL) | 4.2 ± 0.3 (≈ 1.06 µg/mL) | 374 ± 6.3 | inhibition of TNF-α ([2]; LPS-stimulated RAW 264.7): strongly inhibit; inhibition of IL-1β ([4]; LPS-stimulated RAW 264.7): potent inhibitors; inhibition of iNOS expression [6]: almost completely inhibit; MIC50 intracellular M. tuberculosis H37Rv [7]: 4.2 ± 0.3 µM (≈ 1.06 µg/mL) |
| COc1ccc(/C=C/C(=O)c2ccc(OC)cc2)cc1 [Chalcone 29] | – | > 373 | 93.9 ± 4.9 | worst cytotoxicity profiles | 32.5 ± 5.4 (≈ 8.72 µg/mL) | 339.5 ± 3.2 (≈ 91.1 µg/mL) | 13.1 ± 4.2 | < 21 | – | – | – | – | – | – | – | – | – | – |
| O=C(/C=C/c1ccccc1)c1ccc(Br)cc1 [Chalcone 8] | 46.4 ± 2.3 | 66.9 ± 4.5 | 191 ± 5.2 | – | 13.4 ± 4 (≈ 3.85 µg/mL) | 33.7 ± 4.6 (≈ 9.68 µg/mL) | – | – | – | – | 326 ± 3.3 (≈ 93.6 µg/mL) | 10.5 ± 3.8 (≈ 3.02 µg/mL) | 10.5 ± 3.8 (≈ 3.02 µg/mL) | 10.2 ± 4.9 (≈ 2.93 µg/mL) | 344.7 ± 0.4 (≈ 99 µg/mL) | 13.5 ± 0.6 (≈ 3.88 µg/mL) | 66.1 ± 1.5 | MIC90 M. bovis BCG (M. bovis BCG; culture, 7 days, MTT): 33.7 ± 4.6 µM (≈ 9.68 µg/mL) |
| COc1ccc(C(=O)/C=C/c2ccc(F)cc2)cc1 [Chalcone 25] | 41.2 ± 4.6 | > 390 | > 390 | – | 15.8 ± 5.2 (≈ 4.05 µg/mL) | 228 ± 5.8 (≈ 58.5 µg/mL) | – | – | > 390 | 57.5 ± 2.1 | 366.1 ± 3.6 (≈ 93.8 µg/mL) | 25.1 ± 5.2 (≈ 6.43 µg/mL) | 25.1 ± 5.2 (≈ 6.43 µg/mL) | 18.5 ± 3.6 (≈ 4.74 µg/mL) | 366.9 ± 0.3 (≈ 94 µg/mL) | 49.1 ± 1.7 (≈ 12.6 µg/mL) | 264 ± 4.4 | – |
